Source: US6420563B1, “Small molecule modulators of G protein-coupled receptor six” (Arena Pharmaceuticals, Inc., priority 1998, dated 2002)
Several values for one entry are separate records, joined by “and”; a condition that tells them apart may be missing. Equal values may be shown once. Read-outs that look alike come from different tables or passages of the source.

Legend:
[1] = Locomotor activity cages (motor function); type: in vivo, rat; conditions: IP
Method: The effect of ARE112 on motor function was also examined. Motor function was assessed by using automated locomotor activity cages. Animals were placed in a standard rodent cage surrounded by photocell, which allowed for automated recording of motor activity. Animals were under no motivational constraints and were free to move around the cage.
Male Sprague-Dawley rats (n=4-9 per dose) were administered ARE112 (IP) prior to placement into in locomotor activity cages.

[2] = target: T1, GPR6:Gsα-Fusion Protein (Homo sapiens, UniProt P46095); assay: [35S]GTPγS membrane binding assay (Example 4A); type: biochemical
T1 construct: expressed in transfected cells
How it was run: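 Membranes from stable 293 cells expressing the fusion protein were pre-incubated 5-10 min at RT with compounds (10 μM final) in GDP buffer. [35S]GTPγS (0.6 nM as added) was then bound for 60 min at RT and counted after centrifugation. Inverse agonism was scored as reduced receptor-driven GTPγS binding.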

[3] = target: T2, GPR6 (Homo sapiens, UniProt P46095); assay: membrane-based cyclic AMP confirmation assay (Example 4C); type: biochemical
T2 construct: expressed in transfected cells; 293 cells are used elsewhere
How it was run: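 Membranes from stably transfected cells (0.60 mg/ml protein, 30 μg/well) in 20 mM HEPES pH 7.4, 100 mM NaCl, 10 mM MgCl2 were incubated 30 min at room temperature with compound at 12 μM final. cAMP then measured by Flash Plate adenylyl cyclase detection after 2-20 h, scintillation counting.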

T2 sequence (P46095 whole entry): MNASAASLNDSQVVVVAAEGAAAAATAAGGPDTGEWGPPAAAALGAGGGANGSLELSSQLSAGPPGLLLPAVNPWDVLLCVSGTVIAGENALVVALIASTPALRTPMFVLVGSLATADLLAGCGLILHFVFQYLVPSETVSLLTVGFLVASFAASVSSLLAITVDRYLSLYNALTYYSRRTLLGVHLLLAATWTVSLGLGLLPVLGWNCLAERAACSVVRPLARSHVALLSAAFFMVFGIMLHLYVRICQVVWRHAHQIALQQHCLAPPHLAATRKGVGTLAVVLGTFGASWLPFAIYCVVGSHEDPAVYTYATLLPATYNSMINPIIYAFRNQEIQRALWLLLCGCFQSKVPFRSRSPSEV
T1 sequence (P46095 with tags, fused parts or gaps): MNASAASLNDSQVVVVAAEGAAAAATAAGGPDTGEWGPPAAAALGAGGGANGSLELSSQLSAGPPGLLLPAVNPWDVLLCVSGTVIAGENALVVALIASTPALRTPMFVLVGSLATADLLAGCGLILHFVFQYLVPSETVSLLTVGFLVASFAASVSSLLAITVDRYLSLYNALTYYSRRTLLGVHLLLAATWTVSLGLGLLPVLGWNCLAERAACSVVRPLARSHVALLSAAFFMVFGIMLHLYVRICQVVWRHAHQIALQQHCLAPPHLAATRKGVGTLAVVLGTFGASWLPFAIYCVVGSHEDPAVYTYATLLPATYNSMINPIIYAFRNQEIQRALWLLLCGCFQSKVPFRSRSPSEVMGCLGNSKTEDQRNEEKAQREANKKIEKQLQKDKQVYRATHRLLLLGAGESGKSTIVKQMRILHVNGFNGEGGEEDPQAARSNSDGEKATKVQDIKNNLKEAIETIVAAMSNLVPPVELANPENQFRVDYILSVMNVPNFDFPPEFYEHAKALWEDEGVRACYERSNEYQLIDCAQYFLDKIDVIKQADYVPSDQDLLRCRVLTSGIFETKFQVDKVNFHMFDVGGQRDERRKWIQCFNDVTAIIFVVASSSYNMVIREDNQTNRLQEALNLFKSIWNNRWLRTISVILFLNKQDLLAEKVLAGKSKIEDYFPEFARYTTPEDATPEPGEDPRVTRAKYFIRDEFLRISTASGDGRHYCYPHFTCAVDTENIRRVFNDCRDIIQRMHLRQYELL

locomotor activity ([1]; 1.5 hour immediately after injection): does not affect locomotor activity
locomotor activity ([1]; 16 hours post-injection): decreases locomotor activity
IC50 ([2]; mean +/- standard deviation (number of assays in brackets), read-out: IC50 Values GTP Assay Example 4A): 420 nM
IC50 ([2]; representative IC50 curve, assay protocol of Example 4A, read-out: IC50 value against the GPR6 receptor (FIG. 4)): 150 nM
IC50 ([3]; assay number 1-3 for compound ARE112, read-out: IC50 Values (nM) cAMP): 88.3 nM and 77.4 nM and 99 nM
IC50 ([3]; mean +/- standard deviation (number of assays in brackets), read-out: IC50 Values Cyclic AMP Assay Example 4C): 100 nM
Structure (SMILES): O=C(N=C1SSC2=NCCN21)c1cccs1 [ARE112, N-(5,6-dihydro-3H-imidazo[2,1-c]-1,2,4-dithiazol-3-ylidene)-thiophen-2-carboxamide]
